Experimental data published in PubChem BioAssay AID2060896 (Molecular Pharmacology Branch, DTP, NCI, 2025).

Tested on: 941728-121-R-J1-PDC complex spheroid viability
Assay: Anticancer human tumor 941728-121-R-J1-PDC patient-derived lung adenocarcinoma cell line growth inhibition [RAS]
Conditions: for IC50: curve of first compound; for viability, T/C: stronger effect = lower value
In short: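 Multi-cell-type spheroids: tumor cells plus HUVEC endothelial cells and mesenchymal stem cells. RAS-pathway inhibitors were combined with targeted agents, each dosed in half-log steps down from clinical Cmax, or from 10 microM when Cmax was unknown.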

[1] = second compound 0.000949 µM, first compound 0.0316 µM
[2] = second compound 0.000949 µM, first compound 0.1 µM
[3] = second compound 0.000949 µM, first compound 0.316 µM
[4] = second compound 0.000949 µM, first compound 1 µM
[5] = second compound 0.000949 µM, first compound 3.16 µM
[6] = second compound 0.000949 µM, first compound 10 µM
[7] = second compound 0.003 µM, first compound 0.0316 µM
[8] = second compound 0.003 µM, first compound 0.1 µM
[9] = second compound 0.003 µM, first compound 0.316 µM
[10] = second compound 0.003 µM, first compound 1 µM
[11] = second compound 0.003 µM, first compound 3.16 µM
[12] = second compound 0.003 µM, first compound 10 µM
[13] = second compound 0.00949 µM, first compound 0.0316 µM
[14] = second compound 0.00949 µM, first compound 0.1 µM
[15] = second compound 0.00949 µM, first compound 0.316 µM
[16] = second compound 0.00949 µM, first compound 1 µM
[17] = second compound 0.00949 µM, first compound 3.16 µM
[18] = second compound 0.00949 µM, first compound 10 µM
[19] = second compound 0.03 µM, first compound 0.0316 µM
[20] = second compound 0.03 µM, first compound 0.1 µM
[21] = second compound 0.03 µM, first compound 0.316 µM
[22] = second compound 0.03 µM, first compound 1 µM
[23] = second compound 0.03 µM, first compound 3.16 µM
[24] = second compound 0.03 µM, first compound 10 µM
[25] = second compound 0.0949 µM, first compound 0.0316 µM
[26] = second compound 0.0949 µM, first compound 0.1 µM
[27] = second compound 0.0949 µM, first compound 0.316 µM
[28] = second compound 0.0949 µM, first compound 1 µM
[29] = second compound 0.0949 µM, first compound 3.16 µM
[30] = second compound 0.0949 µM, first compound 10 µM
[31] = second compound 0.3 µM, first compound 0.0316 µM
[32] = second compound 0.3 µM, first compound 0.1 µM
[33] = second compound 0.3 µM, first compound 0.316 µM
[34] = second compound 0.3 µM, first compound 1 µM
[35] = second compound 0.3 µM, first compound 3.16 µM
[36] = second compound 0.3 µM, first compound 10 µM
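Note: spheroids exposed to compounds for 7 days before readout.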
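Throughout, for viability, T/C: 100% = DMSO vehicle control viability.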

Structure (SMILES): CC1(O)CCCC1n1c(=O)c(C(F)F)cc2cnc(NC3CCN(S(C)(=O)=O)CC3)nc21 (stereo unspecified) + CCn1c(-c2cc(N3CCN(C)CC3)cnc2C(C)OC)c2c3cc(ccc31)-c1csc(n1)CC(NC(=O)C1CC1C)C(=O)N1CCCC(N1)C(=O)OCC(C)(C)C2
- IC50 (second compound 0.000949 µM): < 31.6 nM
- IC50 (second compound 0.003 µM): < 31.6 nM
- IC50 (second compound 0.00949 µM): < 31.6 nM
- IC50 (second compound 0.03 µM): < 31.6 nM
- IC50 (second compound 0.0949 µM): < 31.6 nM
- IC50 (second compound 0.3 µM): < 31.6 nM
- viability, T/C [1]: 28.6%
- viability, T/C [2]: 30.3%
- viability, T/C [3]: 24.8%
- viability, T/C [4]: 38.3%
- viability, T/C [5]: 34.9%
- viability, T/C [6]: 31.3%
- viability, T/C [7]: 24.4%
- viability, T/C [8]: 20.1%
- viability, T/C [9]: 18.4%
- viability, T/C [10]: 22.3%
- viability, T/C [11]: 23.3%
- viability, T/C [12]: 26.9%
- viability, T/C [13]: 16.5%
- viability, T/C [14]: 13.6%
- viability, T/C [15]: 15.9%
- viability, T/C [16]: 17.5%
- viability, T/C [17]: 15.6%
- viability, T/C [18]: 28.4%
- viability, T/C [19]: 13.4%
- viability, T/C [20]: 12.6%
- viability, T/C [21]: 13.5%
- viability, T/C [22]: 14.4%
- viability, T/C [23]: 9.96%
- viability, T/C [24]: 27.3%
- viability, T/C [25]: 11.1%
- viability, T/C [26]: 14.5%
- viability, T/C [27]: 14.3%
- viability, T/C [28]: 14.8%
- viability, T/C [29]: 9.56%
- viability, T/C [30]: 27.7%
- viability, T/C [31]: 10.4%
- viability, T/C [32]: 11.6%
- viability, T/C [33]: 13.3%
- viability, T/C [34]: 15.2%
- viability, T/C [35]: 12.2%
- viability, T/C [36]: 23.8%

Structure (SMILES): CCC(CC)c1cc(NC2CCC(N)C2)n2nccc2n1 (stereo unspecified) + CCn1c(-c2cc(N3CCN(C)CC3)cnc2C(C)OC)c2c3cc(ccc31)-c1csc(n1)CC(NC(=O)C1CC1C)C(=O)N1CCCC(N1)C(=O)OCC(C)(C)C2
- IC50 (second compound 0.000949 µM): < 31.6 nM
- IC50 (second compound 0.003 µM): < 31.6 nM
- IC50 (second compound 0.00949 µM): < 31.6 nM
- IC50 (second compound 0.03 µM): < 31.6 nM
- IC50 (second compound 0.0949 µM): < 31.6 nM
- IC50 (second compound 0.3 µM): < 31.6 nM
- viability, T/C [1]: 29.4%
- viability, T/C [2]: 28.1%
- viability, T/C [3]: 27.6%
- viability, T/C [4]: 32.5%
- viability, T/C [5]: 15%
- viability, T/C [6]: 41.4%
- viability, T/C [7]: 23.7%
- viability, T/C [8]: 21.6%
- viability, T/C [9]: 20.7%
- viability, T/C [10]: 26.8%
- viability, T/C [11]: 12.4%
- viability, T/C [12]: 39.3%
- viability, T/C [13]: 18%
- viability, T/C [14]: 16.2%
- viability, T/C [15]: 20.5%
- viability, T/C [16]: 24.7%
- viability, T/C [17]: 14.5%
- viability, T/C [18]: 41.5%
- viability, T/C [19]: 14.8%
- viability, T/C [20]: 15.4%
- viability, T/C [21]: 19%
- viability, T/C [22]: 21.2%
- viability, T/C [23]: 19.3%
- viability, T/C [24]: 51%
- viability, T/C [25]: 14.2%
- viability, T/C [26]: 15%
- viability, T/C [27]: 16.5%
- viability, T/C [28]: 21.4%
- viability, T/C [29]: 18.7%
- viability, T/C [30]: 50.8%
- viability, T/C [31]: 13.3%
- viability, T/C [32]: 15.2%
- viability, T/C [33]: 17.8%
- viability, T/C [34]: 20%
- viability, T/C [35]: 13.1%
- viability, T/C [36]: 49.1%

Structure (SMILES): Cc1nc(N2CCC3(CC2)COC(C)C3N)c(CO)nc1Sc1ccnc(N)c1Cl (stereo unspecified) + CCn1c(-c2cc(N3CCN(C)CC3)cnc2C(C)OC)c2c3cc(ccc31)-c1csc(n1)CC(NC(=O)C1CC1C)C(=O)N1CCCC(N1)C(=O)OCC(C)(C)C2
- IC50 (second compound 0.000949 µM): < 31.6 nM
- IC50 (second compound 0.003 µM): < 31.6 nM
- IC50 (second compound 0.00949 µM): < 31.6 nM
- IC50 (second compound 0.03 µM): < 31.6 nM
- IC50 (second compound 0.0949 µM): < 31.6 nM
- IC50 (second compound 0.3 µM): < 31.6 nM
- viability, T/C [1]: 25.1%
- viability, T/C [2]: 21%
- viability, T/C [3]: 14.6%
- viability, T/C [4]: 19.2%
- viability, T/C [5]: 18.7%
- viability, T/C [6]: 12.9%
- viability, T/C [7]: 19.2%
- viability, T/C [8]: 17.7%
- viability, T/C [9]: 13.3%
- viability, T/C [10]: 13.4%
- viability, T/C [11]: 13.6%
- viability, T/C [12]: 9.72%
- viability, T/C [13]: 14.6%
- viability, T/C [14]: 12%
- viability, T/C [15]: 12.8%
- viability, T/C [16]: 13.6%
- viability, T/C [17]: 11.9%
- viability, T/C [18]: 11%
- viability, T/C [19]: 11.9%
- viability, T/C [20]: 15.5%
- viability, T/C [21]: 13.9%
- viability, T/C [22]: 13.2%
- viability, T/C [23]: 9.2%
- viability, T/C [24]: 13.5%
- viability, T/C [25]: 13.3%
- viability, T/C [26]: 14.4%
- viability, T/C [27]: 12.8%
- viability, T/C [28]: 14.3%
- viability, T/C [29]: 9.5%
- viability, T/C [30]: 11.1%
- viability, T/C [31]: 13.1%
- viability, T/C [32]: 12.8%
- viability, T/C [33]: 12.6%
- viability, T/C [34]: 11.2%
- viability, T/C [35]: 12%
- viability, T/C [36]: 13.1%
